Experimental data published in article doi:10.1101/2024.11.24.625011v1 (biorxiv, 2024).

Molecular target: T1, RetSDISMED2 (PaRetSp); RetS (residues 41-185) (Pseudomonas aeruginosa, UniProt Q9HUV7)
T1 sequence (Q9HUV7 41-185): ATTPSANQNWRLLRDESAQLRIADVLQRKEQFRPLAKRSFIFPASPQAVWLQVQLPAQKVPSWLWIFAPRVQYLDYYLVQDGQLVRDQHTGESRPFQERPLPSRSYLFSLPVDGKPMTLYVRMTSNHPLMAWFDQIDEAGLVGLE
Test: isothermal titration calorimetry
Type: binding

## CCCCc1oc2ccc(NS(C)(=O)=O)cc2c1C(=O)c1ccc(OCCCN(CCCC)CCCC)cc1 [dronedarone]
  Kd: ~3600 nM

## NC[C@H](O)c1ccc(O)c(O)c1 [norepinephrine]
  Kd: ~1000 nM
